Test systems include A549 NSCLC; EKVX NSCLC; HCT-116 colon; MOLT-4 leukemia; PC-3 prostate; SF-268 CNS; SF-295 CNS; SF-539 CNS; SW-620 colon; SNB-75 CNS.
What all share (test): growth of human tumour cells (NCI), 48 h

The structures appear in SMILES notation.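 Where inhibition never reached the appropriate level, the endpoint shown equals the highest concentration tested. Otherwise, values were interpolated linearly from a five-concentration, 48-hour dose response in 96-well plates. GI50 = concentration required for 50% inhibition of growth. TGI: total growth inhibition.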 Where only a bound is given, the exact number is not on record here.

Regarding `Clc1ccc(Cl)c(N/N=C\c2c[nH]c3ccccc23)c1`, the GI50 in the test on A549 NSCLC was 14.1 µM; in the test on EKVX NSCLC, 2.36 µM; in the test with HCT-116 colon, 14.8 µM; in the test with MOLT-4 leukemia it was 0.293 µM; in the test on PC-3 prostate, 0.915 µM; in the test on SF-268 CNS, above 100 µM. Besides, the GI50 is 13.8 µM with SF-295 CNS, 8.16 µM in the test with SF-539 CNS and 10.3 µM in the test with SW-620 colon. For the same compound, the TGI in the test with A549 NSCLC is 29.4 µM; in the test on EKVX NSCLC, 15.5 µM; in the test with HCT-116 colon it was 27.9 µM; in the test on MOLT-4 leukemia it was 11.8 µM; in the test with PC-3 prostate, 9.48 µM; in the test on SF-268 CNS, above 100 µM. The TGI with SF-295 CNS came to 70.4 µM; in the test on SF-539 CNS it was 21 µM; with SW-620 colon, 24.6 µM.

For the compound `FC(F)(F)c1ccc2nc(-c3nc(-c4ccccc4)n4ccccc34)[nH]c2c1`, the GI50 is 3.12 µM in the test with A549 NSCLC; 28.3 µM with MOLT-4 leukemia; 4.11 µM in the test on PC-3 prostate; 5.63 µM with SF-268 CNS; 3.85 µM in the test on SF-295 CNS; 1.69 µM in the test on SF-539 CNS. The GI50 was 1.68 µM in the test on SNB-75 CNS and 3.17 µM in the test on SW-620 colon. Further, the TGI in the test with A549 NSCLC was 11.1 µM; with MOLT-4 leukemia, above 100 µM; in the test with PC-3 prostate, above 100 µM; in the test on SF-268 CNS it was above 100 µM; with SF-295 CNS, 15.1 µM; with SF-539 CNS it was 3.38 µM. For the same compound, the TGI worked out at 3.94 µM in the test with SNB-75 CNS and 23.6 µM in the test on SW-620 colon.

Take `COc1ccc(C(=O)/C=C/c2ccc(Cl)cc2)cc1S(N)(=O)=O`: the GI50 in the test with A549 NSCLC is 2.69 µM; with EKVX NSCLC it was 4.56 µM; in the test on HCT-116 colon, 1.36 µM; in the test on MOLT-4 leukemia, 2.93 µM; in the test with PC-3 prostate it was 2.24 µM; in the test with SF-268 CNS, 3.13 µM. For the same compound, the GI50 in the test on SF-295 CNS was 3.04 µM; in the test on SF-539 CNS it was 1.6 µM; in the test on SW-620 colon it was 1.76 µM. Moreover, the TGI with A549 NSCLC stood at 8.15 µM; with EKVX NSCLC, 18.4 µM; with HCT-116 colon, 2.7 µM; in the test with MOLT-4 leukemia, 9.16 µM; with PC-3 prostate, 5.24 µM; in the test with SF-268 CNS, 11.9 µM. Further, the TGI with SF-295 CNS was found to be 10.2 µM; in the test with SF-539 CNS, 3.3 µM; in the test with SW-620 colon, 3.85 µM.

In the case of `NC(=O)C/C=C/CC(N)=O`, the TGI with A549 NSCLC, in the test with EKVX NSCLC, with HCT-116 colon, with PC-3 prostate, in the test with SF-268 CNS and in the test on SF-295 CNS was above 100 µM in each case. Further, the TGI in the test with SF-539 CNS, in the test with SNB-75 CNS and in the test on SW-620 colon was above 100 µM each time.

As to `Nc1nc2nc3c(nc2c(=O)[nH]1)CN(c1ccc(C(=O)O)cc1)C3=O`, the TGI in the test on A549 NSCLC, in the test on EKVX NSCLC, in the test with HCT-116 colon, in the test on PC-3 prostate, in the test with SF-268 CNS and in the test with SF-295 CNS was above 100 µM each time. In addition, the TGI in the test with SF-539 CNS, with SNB-75 CNS and with SW-620 colon was above 100 µM each time.

Consider `CCN(CC)CCn1c(=N)n(CC(O)c2ccc(Cl)c(Cl)c2)c2ccccc21` (configuration not stated), for which the GI50 was 4.47 µM in the test on HCT-116 colon; 3.1 µM in the test with MOLT-4 leukemia; 5.21 µM with PC-3 prostate; 11.9 µM with SF-268 CNS; 8.87 µM in the test on SF-295 CNS; 2.86 µM in the test with SF-539 CNS. Moreover, the GI50 in the test with SNB-75 CNS is 10.6 µM; with SW-620 colon, 11 µM. In addition, the TGI in the test with HCT-116 colon was found to be 16.4 µM; with MOLT-4 leukemia, 13.1 µM; with PC-3 prostate it was 19.3 µM; in the test on SF-268 CNS, 25.3 µM; in the test with SF-295 CNS, 24.1 µM; with SF-539 CNS, 10.1 µM. Moreover, the TGI in the test with SNB-75 CNS came to 23.8 µM; with SW-620 colon, 24.8 µM.

On to `COc1ccc(C(=O)CC2(O)C(=O)Nc3c(Cl)ccc(Cl)c32)cc1` (configuration not stated), for which the GI50 in the test with A549 NSCLC was 1.55 µM; with HCT-116 colon it was 0.72 µM; in the test on MOLT-4 leukemia, 3.18 µM; with PC-3 prostate it was 2.8 µM; in the test with SF-268 CNS, 5.95 µM; with SF-295 CNS, 1.35 µM. The GI50 in the test on SF-539 CNS was 1.64 µM; in the test on SNB-75 CNS it was 1.89 µM; in the test on SW-620 colon it was 0.503 µM. The TGI was above 100 µM in the test with A549 NSCLC; 23.9 µM in the test on HCT-116 colon; above 78.5 µM with MOLT-4 leukemia; above 100 µM in the test on PC-3 prostate; above 61.1 µM in the test on SF-268 CNS; 14.8 µM with SF-295 CNS. The TGI was 6.96 µM with SF-539 CNS, above 29.8 µM in the test with SNB-75 CNS and above 100 µM in the test on SW-620 colon.

In the case of `COc1cc([C@@H]2c3cc4c(cc3[C@H](OC3OC5COC(c6ccccc6)OC5C(O)C3O)[C@H]3COC(=O)[C@H]23)OCO4)cc(OC)c1OC` (some centres not stated), the GI50 was 0.344 µM in the test on A549 NSCLC; 0.426 µM in the test on EKVX NSCLC; 0.346 µM in the test on HCT-116 colon; 0.432 µM in the test with PC-3 prostate; 0.428 µM in the test on SF-268 CNS; 0.27 µM in the test on SF-295 CNS. Moreover, the GI50 in the test on SNB-75 CNS was 0.403 µM; in the test with SW-620 colon, 0.396 µM. Further, the TGI was found to be 5.68 µM in the test on A549 NSCLC; 24.2 µM in the test with EKVX NSCLC; 22.5 µM in the test on PC-3 prostate; 2.72 µM with SF-268 CNS; 8.11 µM in the test on SNB-75 CNS; 10.8 µM with SW-620 colon.

Turning to `COC1CC(OC2OC(CO)C(O)C(O)C2O)/C(=C\C#N)C(O)C1OC` (configuration not stated), the TGI in the test on A549 NSCLC, with EKVX NSCLC, in the test with HCT-116 colon, in the test with MOLT-4 leukemia, in the test with PC-3 prostate and with SF-268 CNS was above 100 µM throughout. Further, the TGI in the test with SF-295 CNS, in the test on SF-539 CNS and in the test with SW-620 colon was above 100 µM throughout.

For the origin of these results see PubChem BioAssay (NCI).
